Source: US20260022142A1, “MACROCYCLIC IMMUNOMODULATORS” (Bristol-Myers Squibb Company, priority 2022, published 2026)
Bridge positions count the residues as written; N and C are the ends. Square brackets hold non-standard residues; d marks the D form. Peptide text beside a SMILES is read from it. * marks the point of attachment. ξ: configuration not given here. Phe(4-CONH2) = NC(=O)c1ccc(C[C@H](N)C(=O)O)cc1; Phe(4-COOH) = N[C@@H](Cc1ccc(C(=O)O)cc1)C(=O)O; Bip = N[C@@H](Cc1ccc(-c2ccccc2)cc1)C(=O)O; Phe(4-CN) = N#Cc1ccc(C[C@H](N)C(=O)O)cc1; Phe(3-Me) = Cc1cccc(C[C@H](N)C(=O)O)c1; Val(3-OH) = CC(C)(O)[C@H](N)C(=O)O; 4Pal = N[C@@H](Cc1ccncc1)C(=O)O; Cha = N[C@@H](CC1CCCCC1)C(=O)O; Thr(3ξ) = CC(O)[C@H](N)C(=O)O; Carboxymethyl = O=C(O)C*; Orn = NCCC[C@H](N)C(=O)O; Aun = NCCCCCCCCCCC(=O)O; Dab = NCC[C@H](N)C(=O)O; Abu = CC[C@H](N)C(=O)O; AEEA = NCCOCCOCC(=O)O

Biological target: T1, PD-1/PD-L1 interaction (PE-labeled human PD-L1-Ig binding to Jurkat cell line over-expressing human PD-1) (Homo sapiens, UniProt Q15116)
T1 construct: expressed in transfected cells; host or cells: Jurkat
Experiment: Jurkat-PD-1 Cell Binding High-Content Screening Assay (CBA)
Format: cell-based
Conditions: Jurkat cell line over-expressing human PD-1; PE-labeled PD-L1-Ig 20 nM final; read-out: Jurkat hPD1-PDL1 IC50
In short: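 Jurkat-hPD-1 cells, DMEM/10% FCS; cpd 2 h 37° C; PE-PD-L1-Ig 20 nM final, 1 h; 4% PFA fix + Hoechst 33342, 3× dPBS wash; high-content imaging read-out.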

T1 sequence (Q15116 25-288): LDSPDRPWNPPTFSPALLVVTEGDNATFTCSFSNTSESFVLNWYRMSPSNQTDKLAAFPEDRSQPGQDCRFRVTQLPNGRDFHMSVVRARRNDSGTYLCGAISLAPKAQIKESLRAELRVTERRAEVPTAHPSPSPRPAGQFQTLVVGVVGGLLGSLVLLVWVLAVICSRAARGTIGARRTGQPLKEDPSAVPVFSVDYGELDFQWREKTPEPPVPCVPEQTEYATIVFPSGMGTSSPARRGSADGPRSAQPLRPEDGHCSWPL

Structure (SMILES)	IC50
Cc1cccc(C[C@@H]2NC(=O)[C@H](CC(=O)O)NC(=O)[C@H](Cc3ccc(C#N)cc3)NC(=O)[C@H](C(C)O)NC(=O)CSC[C@@H](C(=O)N[C@@H](CCN)C(=O)NCCOCCOCC(=O)NCCCCCCCCCCC(=O)O)NC(=O)[C@H](Cc3cnc[nH]3)NC(=O)[C@H](C(C)(C)O)NC(=O)[C@H](CC3CCCCC3)NC(=O)[C@H](CCN)NC(=O)[C@@H](CC(C)C)NC(=O)[C@H](CCCN)NC(=O)[C@H](Cc3ccc(OCC(=O)O)cc3)NC(=O)[C@H](Cc3ccc(-c4ccccc4)cc3)NC(=O)[C@H](Cc3ccc(OCC(=O)O)cc3)NC2=O)c1 (stereo partly drawn) [Compound 3776] ({CH2CO}-[Thr(3ξ)][Phe(4-CN)]D[Phe(3-Me)]Y(Carboxymethyl)[Bip]Y(Carboxymethyl)[Orn][dL][Dab][Cha][Val(3-OH)]HC[Dab][AEEA][Aun]-OH; thioether N-14)	3.6 nM
Cc1cccc(C[C@@H]2NC(=O)[C@H](CC(=O)O)NC(=O)[C@H](Cc3ccc(C(=O)O)cc3)NC(=O)[C@H](Cc3ccncc3)NC(=O)CSC[C@@H](C(=O)N[C@@H](CCN)C(=O)NCCOCCOCC(=O)NCCCCCCCCCCC(=O)O)NC(=O)[C@H](CO)NC(=O)[C@H](C(C)(C)O)NC(=O)[C@H](CC3CCCCC3)NC(=O)[C@H](CCN)NC(=O)[C@@H](CC(C)C)NC(=O)[C@H](CCCN)NC(=O)[C@H](CCC(N)=O)NC(=O)[C@H](Cc3ccc(-c4ccccc4)cc3)NC(=O)[C@H](Cc3ccc(C(N)=O)cc3)NC2=O)c1 [Compound 3778] ({CH2CO}-[4Pal][Phe(4-COOH)]D[Phe(3-Me)][Phe(4-CONH2)][Bip]Q[Orn][dL][Dab][Cha][Val(3-OH)]SC[Dab][AEEA][Aun]-OH; thioether N-14)	26.6 nM
CC[C@@H]1NC(=O)CSC[C@@H](C(=O)N[C@@H](CCN)C(=O)NCCCCCCCCCCC(=O)O)NC(=O)[C@H](CCC(=O)O)NC(=O)[C@H](C(C)(C)O)NC(=O)[C@H](CC2CCCCC2)NC(=O)[C@H](CCN)NC(=O)[C@@H](CC(C)C)NC(=O)[C@H](CCCN)NC(=O)[C@H](Cc2ccc(OCC(=O)O)cc2)NC(=O)[C@H](Cc2ccc(-c3ccccc3)cc2)NC(=O)[C@H](Cc2ccc(OCC(=O)O)cc2)NC(=O)[C@H](Cc2cccc(C)c2)NC(=O)[C@H](CC(=O)O)NC(=O)[C@H](Cc2ccc(OCC(=O)O)cc2)NC1=O [Compound 3794] ({CH2CO}-[Abu]Y(Carboxymethyl)D[Phe(3-Me)]Y(Carboxymethyl)[Bip]Y(Carboxymethyl)[Orn][dL][Dab][Cha][Val(3-OH)]EC[Dab][Aun]-OH; thioether N-14)	3.8 nM

Now from value to molecule:

IC50	Structure (SMILES)
5.8 nM	Cc1cccc(C[C@@H]2NC(=O)[C@H](CC(=O)O)NC(=O)[C@H](Cc3ccc(C(=O)O)cc3)NC(=O)[C@H](C(C)O)NC(=O)CSC[C@@H](C(=O)N[C@@H](CCN)C(=O)NCCOCCOCC(=O)NCCOCCOCC(=O)NCCCCCCCCCCC(=O)O)NC(=O)[C@H](CO)NC(=O)[C@H](C(C)O)NC(=O)[C@H](CC3CCCCC3)NC(=O)[C@H](CCN)NC(=O)[C@@H](CC(C)C)NC(=O)[C@H](CCCN)NC(=O)[C@H](Cc3ccc(C(=O)O)cc3)NC(=O)[C@H](Cc3ccc(-c4ccccc4)cc3)NC(=O)[C@H](Cc3ccc(C(=O)O)cc3)NC2=O)c1 (stereo partly drawn) [Compound 3775] ({CH2CO}-[Thr(3ξ)][Phe(4-COOH)]D[Phe(3-Me)][Phe(4-COOH)][Bip][Phe(4-COOH)][Orn][dL][Dab][Cha][Thr(3ξ)]SC[Dab][AEEA][AEEA][Aun]-OH; thioether N-14)
3.4 nM	Cc1cccc(C[C@@H]2NC(=O)[C@H](CC(=O)O)NC(=O)[C@H](Cc3ccc(C(=O)O)cc3)NC(=O)[C@H](C(C)O)NC(=O)CSC[C@@H](C(=O)N[C@@H](CCN)C(=O)NCCOCCOCC(=O)NCCOCCOCC(=O)NCCCCCCCCCCC(=O)O)NC(=O)[C@H](CO)NC(=O)[C@H](C(C)(C)O)NC(=O)[C@H](CC3CCCCC3)NC(=O)[C@H](CCN)NC(=O)[C@@H](CC(C)C)NC(=O)[C@H](CCCN)NC(=O)[C@H](Cc3ccc(C(=O)O)cc3)NC(=O)[C@H](Cc3ccc(-c4ccccc4)cc3)NC(=O)[C@H](Cc3ccc(C(=O)O)cc3)NC2=O)c1 (stereo partly drawn) [Compound 3777] ({CH2CO}-[Thr(3ξ)][Phe(4-COOH)]D[Phe(3-Me)][Phe(4-COOH)][Bip][Phe(4-COOH)][Orn][dL][Dab][Cha][Val(3-OH)]SC[Dab][AEEA][AEEA][Aun]-OH; thioether N-14)
